From the NIST ThermoML archive (doi:10.1021/je050378i)
Numbers after ± are expanded uncertainties.

Assay: wn = mass fraction of the nth substance listed
Settings: 101.33 kPa, Liquid

C1CNCCN1 [piperazine] + O
Settings	mass density, w1 = 0.0174 [kg/m3]	mass density, w1 = 0.0345 [kg/m3]	mass density, w1 = 0.0516 [kg/m3]	mass density, w1 = 0.0688 [kg/m3]	viscosity, w1 = 0.0174 [mPa·s]	viscosity, w1 = 0.0344 [mPa·s]	viscosity, w1 = 0.0516 [mPa·s]	viscosity, w1 = 0.0688 [mPa·s]
298 K	997.8 ± 1.1	998.5 ± 1.1	999.4 ± 1.1	1000.6 ± 1.1	0.957 ± 0.03	1.021 ± 0.031	1.09 ± 0.033	1.169 ± 0.036
303 K	996.5 ± 1.2	997.2 ± 1.2	998.1 ± 1.2	999 ± 1.2	0.861 ± 0.027	0.915 ± 0.028	0.965 ± 0.03	1.035 ± 0.032
308 K	995.1 ± 1.2	995.7 ± 1.2	996.5 ± 1.2	997.6 ± 1.2	0.776 ± 0.024	0.805 ± 0.025	0.865 ± 0.027	0.91 ± 0.028
313 K	993.2 ± 1.2	994.1 ± 1.2	994.7 ± 1.3	995.6 ± 1.2	0.681 ± 0.022	0.718 ± 0.023	0.763 ± 0.024	0.821 ± 0.026
318 K	991.4 ± 1.3	992.2 ± 1.3	992.5 ± 1.3	993.8 ± 1.3	0.623 ± 0.02	0.652 ± 0.021	0.703 ± 0.022	0.731 ± 0.023
323 K	989.3 ± 1.3	990.2 ± 1.3	990.4 ± 1.3	991.4 ± 1.3	0.573 ± 0.018	0.592 ± 0.019	0.624 ± 0.02	0.663 ± 0.021
328 K	986.7 ± 1.4	987.4 ± 1.4	988 ± 1.4	989.1 ± 1.4	0.543 ± 0.018	0.543 ± 0.018	0.569 ± 0.018	0.604 ± 0.019
333 K	984.2 ± 1.4	984.5 ± 1.4	985.7 ± 1.4	987.4 ± 1.4	0.488 ± 0.016	0.505 ± 0.017	0.523 ± 0.017	0.546 ± 0.018

CC(C)(N)CO [2-amino-2-methylpropan-1-ol] + O
w1 = 0.3
Settings	mass density [kg/m3]	viscosity [mPa·s]
298 K	997 ± 1.3	3.637 ± 0.11
303 K	994.2 ± 1.4	2.964 ± 0.091
308 K	991.4 ± 1.4	2.446 ± 0.075
313 K	988.4 ± 1.4	2.043 ± 0.063
318 K	985.4 ± 1.5	1.696 ± 0.053
323 K	982.1 ± 1.5	1.425 ± 0.044
328 K	978.8 ± 1.5	1.237 ± 0.039
333 K	975.5 ± 1.6	1.081 ± 0.034
